One block for each molecule: values may come before it.
What was measured:
[1] = tested on: Promega Mid Range Molecular Weight Standards; test: Detection of denatured protein with dodecylamino and octylamino derivatives of fluorescein isothiocyanate
Experimental: A fifteen well, 12% gel was made as described in example 5 and was loaded with diluted Promega Mid Range Molecular Weight Standards to produce lanes containing samples having 200, 100, 80, 60, 40, 20 and 10 ng of protein per band. The gel was run as described in example 5 except that Promega Green 1 was not added to the cathode buffer. After electrophoresis, the gel was cut between lanes to produce gel segments containing fractionated protein samples at each of the concentrations listed above and these were placed in 30% methanol for 25-30 min at room temperature. The stock stain solutions of Example 33 were then diluted into distilled water at a concentration of 0.5% (v/v), and 50 ml of these solutions were used to stain the gels. After 1 hr incubation, the gels were visualized and photographed using a transilluminator. […] The gels were then placed in 5% methanol and allowed to destain overnight.
Gels were made and loaded as described in Example 34. The gels were incubated in 30% methanol for 15 min to fix the protein and then were incubated in 50 ml of a solution of the stains of Example 38 made by dilution of the stock stain solutions described in Example 38 to a concentration of 0.5% (v/v) in distilled water. After incubation in the staining solution for 1 hr, the gels were placed in 5% methanol and were visualized and photographed after 30 min by placement of the gel segment on a transilluminator. Photography of the segments was performed as described in Example 27. At this point, protein bands were visualized in the gel stained with the dodecylamino derivative at a concentration as low as 80 ng of protein per band.
The gel segments were then returned to the destaining solutions and allowed to incubate overnight. The segment of the gel stained with the octylamino derivative was transferred to a solution of 30% methanol following the overnight incubation and was revisualized and rephotographed after 1 hr of incubation in this methanol solution. At this point, protein was detected at fluorescently labeled bands to a concentration as low as 40 ng of protein per band.

[2] = Spectral analyses of Coomassie Blue R and Promega Green 1, 2, 3; format: physicochemical; conditions: diluted 1:500 in 1:1 methanol:water
Experimental: The three solutions of Promega Green 1, 2, and 3, from examples 1, 2 and 3 respectively, were diluted approximately 500 fold into a 1:1 solution of methanol:water. The spectra of the resulting solutions and of a 12 μg/ml solution of Coomassie Blue R (in 1:1 methanol:water) were recorded from 700 to 340 nm versus 1:1 methanol:water. […] All of the derivatives gave essentially identical spectra; however, the maximal absorbance of the diluted Promega Green i was about twice that seen for the other derivatives. The derivatives had two peak absorptions in the region of the spectrum scanned, a major peak at around 630 nm and a second peak at around 440 nm. The following absorbances were recorded at the peaks near 630 nm for the three Promega Green dye solutions (diluted 1:500 in 1:1 methanol:water): […]

[3] = tested on: Promega Mid-Range Molecular Weight Markers; test: Enhancement of staining of proteins in SDS-PAGE gels in 5% acetic acid; conditions: 5% acetic acid
Experimental: The gels described above were placed in 5% acetic acid following the termination of the electrophoretic separation. Within one to two minutes the gel developed a light green background but the protein bands dramatically darkened to a green color. […] Again, the color of the background darkened to a greater degree when greater concentrations of dye were used.
The gels above (from Example 7) were placed in 5% acetic acid following termination of the electrophoretic separation. Within 1-2 minutes, all the gels turned light green and the color of the stained bands intensified such that all proteins were visible--even in the lane containing 0.25 μg protein/band.
The gels above (Example 9) were placed in 5% acetic acid following termination of the electrophoretic separation. Within 1-2 minutes, all the gels turned light green and the color of the stained bands intensified such that all proteins were visible--even in the lanes containing 0.25 μg protein/band.

[4] = tested on: Promega Mid-Range Molecular Weight Markers; test: Detection of proteins during SDS-PAGE electrophoresis (dye in cathode buffer); conditions: 10% SDS-PAGE, dye in cathode buffer, white plastic card behind gel
Description: Solutions for the formation and electrophoresis of proteins were made according to the instructions given in Experiments in Gene Fusions, Silhavy, Berman, Enquist, Cold Spring Harbor Laboratory Press, Cold Spring Harbor, N.Y. with the following changes:
a) The SDS concentration in the upper and lower gel buffer components were reduced to result in a 0.05% final SDS concentration in the gel. Thus, the composition of 4× upper gel buffer was 0.5M Tris-HCl, pH 6.8, 0.2 % (w/v) sodium dodecylsulfate (SDS) and the composition of 4× lower gel buffer was 1.5M Tris-HCl, pHS.8, 0.2 % (w/v) SDS.
b) The SDS concentration in the electrophoretic (electrode) buffer was reduced to 0.04% final concentration. Thus, 4× electrode (anode or cathode) buffer was made by dissolving 60 g Tris base, 288 g glycine, and 8 g SDS dissolved in water and then diluting with water to 5 liters. Another name sometimes used for "electrode" buffer is "running" buffer.
c) The SDS concentration in the 2× sample buffer was reduced to 1% final SDS concentration. Thus, 2× sample buffer was made by mixing 0.5 ml of betamercaptoethanol, 0.25 ml of 0.1% (w/v) bromophenol blue, 1 ml of 10 % (w/v) SDS, 3 ml of water, and 5.3 ml of 2× glycerol buffer. 2× glycerol buffer is made by mixing 12.5 ml of 4× upper gel buffer and 20 ml of glycerol and diluting the resulting solution to 60 ml with water. Another name sometimes used for "sample" buffer is "loading" buffer.
d) Electrophoresis was performed using a BIO-RAD miniprotein II electrophoresis apparatus and gels were poured such that i cm of space was present between the bottom of the loading wells and the separating gel.
In other electrophoresis experiments reported in this application, the buffers used were as described above in this example. In some cases, as in this example, where preparation of a solution of dye in 150 ml of cathode (or electrode) buffer is specified, an amount of stock solution of a dye was first added to 150 ml of cathode buffer and then 125 ml of the resulting solution was used to fill the cathode buffer chamber (which holds 125 ml) in the electrophoresis apparatus. In other cases, where addition of stock solution of dye to the cathode buffer is specified without reference to the volume of cathode buffer or with reference to such volume being "125 ml," the stock solution was added directly to 125 ml of cathode buffer already in the cathode buffer chamber.
The samples used were prepared with Promega Mid-Range Molecular Weight Markers solution (Promega Corp., Madison, Wis., USA, Catalog No. V5231) (referred to hereinafter as "Promega Mid-Range [Molecular Weight] Markers or Standards") diluted into Sample Buffer. […]

[5] = 0.5% (v/v) stain 1 hr, 5% methanol 30 min

SMILES: CCCCCCCCCCCCNC(=S)Nc1ccc(-c2c3ccc(=O)cc-3oc3cc(O)ccc23)c(C(=O)O)c1 [dodecylamino derivative]
lowest protein per band visualized [1, 5]: 80 ng

SMILES: CCCCCCCCNC(=S)Nc1ccc(-c2c3ccc(=O)cc-3oc3cc(O)ccc23)c(C(=O)O)c1 [octylamino derivative]
background / visualization of bands [1, 5]: high background fluorescence which prevented visualization of the protein bands | lowest protein per band detected ([1]; after overnight destaining, then 30% methanol 1 hr): 40 ng

Absorbance at the peak near 630 nm [2]: 1.37
SMILES: CCOc1ccc(N(C(C)=O)c2ccc(C(=C3C=CC(=[N+](CC)Cc4cccc(S(=O)(=O)[O-])c4)C=C3)c3ccc(N(CC)Cc4cccc(S(=O)(=O)O)c4)cc3)cc2)cc1 [Promega Green 2]
lowest protein amount per band visible after enhancement ([3]; 1-2 minutes): 0.25 µg | staining after overnight incubation ([3]; overnight): slightly faded | lowest protein amount per band visible while the gel was running [4]: 1.0 µg

From US5705649A, “Protein staining compositions and methods” (Promega Corporation, priority 1995, dated 1998)
